Data set [1] deals with cytochrome P450. Nature of the data set: Decay of cytochrome P450 substrates in in vitro culture of the silkworm midgut (HPLC). As for the experimental part:
Silkworm midgut was incubated in medium with cytochrome P450 substrates at 30 °C. The samples were collected, extracted by acetone, and evaporated. The amounts of substrates were determined by HPLC analysis.
Silkworms (5th instar, 5 days) were dissected in a buffer (10 mM HEPES/NaOH, 0.9% NaCl, pH 7.9), and isolated organs were incubated with 3 mL TC-100 medium containing 10% fetal bovine serum, 50 µg/ml gentamicin, and substrates for the metabolic reaction. Whole samples (medium and organ) were homogenized and extracted by equal volumes of acetone followed by evaporation. Extracted samples were dissolved in 50 mM NaOAc buffer and treated with beta-glucosidase to measure the fluorescence of metabolized 7-ethoxycoumarin[6]. […] Samples for HPLC were dissolved in 50% methanol. HPLC analysis was performed using a PEGASIL ODS SP column (φ4.5 mm × 250 mm) with isocratic elution at a flow rate of 1 ml/min.

Data set [2] can be described thus: in vivo. The following applies: in vivo; for HPLC peak area in hemolymph: silkworm (Bombyx mori). As for the experimental part:
Antibiotics were injected into silkworm hemolymph and hemolymph was collected by cutting the legs at the indicated time.
Antibiotics dissolved in saline were injected into the hemolymph of 5th instar silkworms using a 1-mL syringe attached to a 27 G needle. Hemolymph was harvested from abdominal appendages by cutting them with scissors at the indicated time-points after administration, and mixed with an equal volume of acetone. Samples were centrifuged at 15,000 rpm for 5 min at 4 °C, and the supernatants were evaporated with a centrifuge evaporator[18]. The dried materials were dissolved in 50% methanol and filtrated through a 0.45-µm filter. […] The amount of antibiotics in the sample was quantified from the peak area of the chromatogram.

For data set [3] the following is noted: in vivo, 10 mg/kg; cited from earlier work.
Where [4] appears, read: midgut culture, 0 h, raw data of Fig. 3.
[5] abbreviates: midgut culture, 1 h, raw data of Fig. 3.
Where [6] appears, read: midgut culture, 4 h, raw data of Fig. 3.
The mark [7] stands for this setting: midgut culture, 20 h, raw data of Fig. 3.

Consider 5 molecules from paper PMC6602958, “Pharmacokinetics of anti-infectious reagents in silkworms” (Scientific Reports, 2019).

Read-outs that look alike come from different tables or passages of the source.

For the molecule `Cn1c(=O)c2c(ncn2C)n(C)c1=O` [Caffeine], the “HPLC peak area of substrate, Sample 1” value in data set [1] (setting [4]) turned out to be 236597; in data set [1] (setting [5]) it was 225184; in data set [1] (setting [6]), 220757; in data set [1] (setting [7]), 226873. Further, the “HPLC peak area of substrate, Sample 2” value in data set [1] (setting [4]) was found to be 235789; in data set [1] (setting [5]), 213119; in data set [1] (setting [6]) it was 220302; in data set [1] (setting [7]), 222211.
For orientation: half-life means the time in which the quantity being followed falls by half. A lower half-life goes with fast loss. With `O=C(N[C@H](CO)[C@H](O)c1ccc([N+](=O)[O-])cc1)C(Cl)Cl` [Chloramphenicol], the “Cltot (total body clearance)” value in data set [2] was determined as 0.15 mL/g/h. For the same molecule, the “Time-course of the decrease in concentration in hemolymph (in words)” value in data set [2] is “biphasic”. In data set [2], the half-life was 360 min. Further, the “HPLC peak area in hemolymph” value turned out to be 10505876 in data set [2] (0.1 min); 8079061 in data set [2] (1 min); 4188656 in data set [2] (5 min); 3076056 in data set [2] (10 min); 2727973 in data set [2] (20 min); 1928231 in data set [2] (30 min). The “HPLC peak area in hemolymph” value in data set [2] (60 min) turned out to be 2239912; in data set [2] (90 min), 1941121; in data set [2] (120 min), 1803643; in data set [2] (180 min), 1414738; in data set [2] (240 min) it was 1202608. For the same molecule, the Cltot in data set [3] was 0.24 mL/g/h.
`O=C(O)Cc1ccccc1Nc1c(Cl)cccc1Cl` [Diclofenac]: the “Metabolism in the silkworm midgut (in words)” value (“Metabolism” for short) in data set [1] is recorded as “metabolized in the silkworm midgut”. For the same molecule, the “HPLC peak area of substrate” value was found to be 2620000 in data set [1] (silkworm (Bombyx mori), 0 h); 2450000 in data set [1] (silkworm (Bombyx mori), 1 h); 2250000 in data set [1] (silkworm (Bombyx mori), 4 h); 1370000 in data set [1] (silkworm (Bombyx mori), 20 h).
With `COc1ccc2[nH]c([S+]([O-])Cc3ncc(C)c(OC)c3C)nc2c1` (stereo not drawn) [Omeprazole], the “Metabolism” value in data set [1] is listed as “metabolized in the silkworm midgut”. The “HPLC peak area of substrate, Sample 1” value in data set [1] (silkworm (Bombyx mori), 0 h) is on record as 141638; in data set [1] (silkworm (Bombyx mori), 1 h), 117549; in data set [1] (silkworm (Bombyx mori), 4 h) it was 57706; in data set [1] (silkworm (Bombyx mori), 20 h), 8164. The “HPLC peak area of substrate, Sample 2” value in data set [1] (silkworm (Bombyx mori), 0 h) came to 142171; in data set [1] (silkworm (Bombyx mori), 1 h) it was 116381; in data set [1] (silkworm (Bombyx mori), 4 h), 60668; in data set [1] (silkworm (Bombyx mori), 20 h), 1815.
As for `C[C@]12CC[C@H]3[C@@H](CCC4=CC(=O)CC[C@@]43C)[C@@H]1CC[C@@H]2O` [Testosterone], in data set [1] (in vitro organ culture, up to 20 h incubation), the “Metabolism” value is given as “metabolized in the silkworm midgut”. Moreover, the “HPLC peak area of substrate” value in data set [1] (setting [4]) amounted to 3160000; in data set [1] (setting [5]) it was 1620000; in data set [1] (setting [6]), 1110000; in data set [1] (setting [7]), 1210000.
